# “And” between values parts separate entries of the source, which are not always exact repeats. Equal entries are not always repeated. Structures can show the parent of a compound that is named as a salt. Where two headings read alike, the source gives them in different places.
# Columns and labels:
# complement system = settings: literature report; cited from earlier work
# [1] = tested on: hereditary angioneurotic edema; settings: literature report, New England J. Med. 286, 808-812 (1972); cited from earlier work
# [2] = tested on: human serum total hemolytic complement; settings: in vitro and in vivo, Pathologie Biologie 25, 33-36 (1977); cited from earlier work
# citrated sheep plasma = experiment: In vitro anti-coagulant activity (AC): clotting of recalcified citrated sheep plasma with sheep RBC; assay type: biochemical; settings: for AC Wells: Table I, two-fold serial dilution, higher well number indicates higher activity, sodium heparin positive control; for Anti-coagulant Activity (Wells) AC: Table II, in vitro
# Experimental: The sheep RBC's, kept in suspension throughout the clotting incubation time, become enmeshed in the fibrin matrix if a clot forms. Upon centrifugation of the plate, untrapped RBC's form buttons, the sizes of which correspond to the degree of clot inhibition; this providing a measure of anti-coagulant activity (AC). Sodium heparin is used as a positive control and activity is reported in wells appearing in Table 1.
# (§1) **Activity in wells a serial dilution assay. Higher well number indicates
# (§2) higher activity. The serial dilutions are two -fold.
# whole complement = experiment: In vivo activity: whole complement level of serum of dosed guinea pigs, capillary tube assay; settings: guinea pig; for % Inhibition, Intraperitoneal, 30 min / % Inhibition, Intraperitoneal, 60 min / % Inhibition, Intraperitoneal, 120 min: 200 mg/kg i.p., 200 mg/kg; for inhibition at 200 mg/kg: Cavia porcellus, iv, 200 mg/kg i.v.
# Text: (§3) An active inhibitor protects C2 from C1 and C4; (ii) Test, Code 035 (C3-C9 inhibitor) - This test determines the ability of the late components of human complement (C3-C9) to lyse EAC 142 in the presence of appropriate dilutions of the test compound. An active inhibitor protects EAC 142 from lysis by human C3-C9; (iii) Test, Code 036 (C-Shunt inhibitor) - In this test human erythrocytes rendered fragile are lysed in autologous serum via the shunt pathway activated by cobra venom factor in the presence of appropriate dilutions of the test compound. Inhibition of the shunt pathway results in failure of lysis; (iv) Forssman Vasculitis Test - Here, the well known complement dependent lesion, Forssman vasculitis, is produced in guinea pigs by intradermal injection of rabbit anti-Forssman antiserum. The lesion is measured in terms of diameter, edema and hemorrhage and the extent to which a combined index of these is inhibited by prior intraperitoneal injection of the test compound at 200 mg/kg is then reported, unless otherwise stated; (v) Forssman Shock Test - Lethal shock is produced in guinea pigs by an i.v. injection of anti-Forssman antiserum and the harmonic mean death time of treated guinea pigs is compared with that of simultaneous controls; (vi) Complement Level Reduction Test -- In this test, the above dosed guinea pigs, or others, are bled for serum and the complement level is determined in undiluted serum by the capillary tube method of U.S. Pat. No. 3,876,376 and compared to undosed control guinea pigs; and (vii) Cap 50 Test -- Here, appropriate amounts of the test compound are added to a pool of guinea pig serum in vitro, after which the undiluted serum capillary tube assay referred to above is run. The concentration of compound inhibiting 50% is reported.
# With reference to Table I, guinea pigs weighing about 300 g were dosed intravenously (i.v.) or intraperitoneally (i.p.) with 200 mg/kg of the test compound dissolved in saline and adjusted to pH 7-8. […] The serum was tested for whole complement using the capillary tube assay. Percent inhibition was calculated by comparison with simultaneous controls. The results appear in Table I together with results of tests, code 026, 035, 036, Cap 50, % inhibition and Forssman shock.
# activated human C1 = activated human C1 (Homo sapiens, UniProt P09871); experiment: Code 026 (C1 inhibitor) test: ability of activated human C1 to destroy fluid phase human C2 in presence of C4; assay type: biochemical; settings: for C1 026 Wells: Table I, two-fold serial dilution, higher well number indicates higher activity; for Complement Inhibiting Activity (Wells) Code 026: Table II, in vitro
# Text: as §3, §1, §2
# [3] = tested on: anti-complement and anti-coagulant activities; experiment: Intrinsic Therapeutic Index: separation of anti-complement (Code 026) and anti-coagulant (AC) activities; settings: for Intrinsic Therapeutic Index: antilogarithm (base 2) of the difference in wells; for Logarithmic Difference Expressed As Wells: log base 2 difference, Code 026 minus AC
# Text: The computation of an Intrinsic Therapeutic Index (ITI) was devised to correlate the results expressed in wells, obtained in the in vitro Code 026 (C1 inhibitor) test and the in vitro anti-coagulant (AC) test into a meaningful value which would aid in the net evaluation of the activity of the compounds of this invention.
# The ITI is thus a measure of the separation of anti-complement and anti-coagulant activities; the higher the numerical value the more therapeutically useful the separation of activities.
# shunt pathway = experiment: Code 036 (C-Shunt inhibitor) test: lysis of fragile human erythrocytes in autologous serum via shunt pathway activated by cobra venom factor; assay type: cell-based; settings: Table I; two-fold serial dilution, higher well number indicates higher activity
# Text: An active inhibitor protects C2 from C1 and C4; (ii) Test, Code 035 (C3-C9 inhibitor) - This test determines the ability of the late components of human complement (C3-C9) to lyse EAC 142 in the presence of appropriate dilutions of the test compound. An active inhibitor protects EAC 142 from lysis by human C3-C9; (iii) Test, Code 036 (C-Shunt inhibitor) - In this test human erythrocytes rendered fragile are lysed in autologous serum via the shunt pathway activated by cobra venom factor in the presence of appropriate dilutions of the test compound. Inhibition of the shunt pathway results in failure of lysis; (iv) Forssman Vasculitis Test - Here, the well known complement dependent lesion, Forssman vasculitis, is produced in guinea pigs by intradermal injection of rabbit anti-Forssman antiserum. […]
molecule,measurement,setting,value
Cc1ccc(C(=O)Nc2ccc(S(=O)(=O)O)c3cc(S(=O)(=O)O)cc(S(=O)(=O)O)c23)cc1NC(=O)c1cccc(NC(=O)Nc2cccc(C(=O)Nc3cc(C(=O)Nc4ccc(S(=O)(=O)O)c5cc(S(=O)(=O)O)cc(S(=O)(=O)O)c45)ccc3C)c2)c1 [Suramin],anticomplementary effect / complement inhibition,complement system,competitive inhibitor of the complement system
same,success in treatment of hereditary angioneurotic edema,[1],used with success
pentosan-poly-sulfoester,"anticomplementary activity, reduction in total hemolytic complement activity",[2],anticomplementary activity on human serum both in vitro and in vivo
"COC(=O)c1cc(NS(=O)(=O)c2cc(S(=O)(=O)Nc3cc(C(=O)OC)c(O)c(C(=O)OC)c3)cc(S(=O)(=O)Nc3cc(C(=O)OC)c(O)c(C(=O)OC)c3)c2)cc(C(=O)OC)c1O [5,5',5""-[s-Phenenyltris(sulfonylimino)]tri-2-hydroxy isophthalic acid hexamethyl ester]",AC Wells,citrated sheep plasma,-1 Wells
"COC(=O)c1cc(NS(=O)(=O)c2cc(S(=O)(=O)Nc3ccc(O)c(C(=O)OC)c3)cc(S(=O)(=O)Nc3ccc(O)c(C(=O)OC)c3)c2)ccc1O [5,5',5""-[s-Phenenyltris(sulfonylimino)]trisalicyclic acid trimethyl ester]",AC Wells,citrated sheep plasma,≤ +1 Wells
"O=C(O)c1cc(NS(=O)(=O)c2cc(S(=O)(=O)Nc3cc(C(=O)O)cc(C(=O)O)c3)cc(S(=O)(=O)Nc3cc(C(=O)O)cc(C(=O)O)c3)c2)cc(C(=O)O)c1 [5,5',5""-[s-Phenenyltris(sulfonylimino)]tri-isophthalic acid ] [5,5',5""-[s-Phenenyltris(sulfonylimino)]tri-isophthalic acid hexasodium salt, trisodium derivative compound with ethyl alcohol (2:5)]",AC Wells,citrated sheep plasma,-1 Wells
same,Anti-coagulant Activity (Wells) AC,citrated sheep plasma,-1 Wells
same,"% Inhibition, Intraperitoneal, 30 min",whole complement; 30 mins.,-62%
same,"% Inhibition, Intraperitoneal, 60 min",whole complement,-53%
same,"% Inhibition, Intraperitoneal, 120 min",whole complement; 120 mins.,-49%
same,C1 026 Wells,activated human C1,+5 Wells
same,Complement Inhibiting Activity (Wells) Code 026,activated human C1,+5 Wells
same,Intrinsic Therapeutic Index,[3],64
same,Logarithmic Difference Expressed As Wells,[3],+6 Wells
"COCCOC(=O)c1cc(NS(=O)(=O)c2cc(S(=O)(=O)Nc3cc(C(=O)OCCOC)cc(C(=O)OCCOC)c3)cc(S(=O)(=O)Nc3cc(C(=O)OCCOC)cc(C(=O)OCCOC)c3)c2)cc(C(=O)OCCOC)c1 [5,5',5""-[s-Phenenyltris(sulfonylimino)]tri-isophthalic acid hexakis(2-methoxyethyl)ester]",AC Wells,citrated sheep plasma,< 0 Wells
"O=C(O)c1cc(NS(=O)(=O)c2cc(S(=O)(=O)Nc3cc(C(=O)O)cc(C(=O)O)c3)cc(S(=O)(=O)Nc3cc(C(=O)O)cc(C(=O)O)c3)c2)cc(C(=O)O)c1 [5,5',5""-[s-Phenenyltris(sulfonylimino)]tri-isophthalic acid] [listing 1 of 2 here]","% Inhibition, Intraperitoneal, 30 min",whole complement; 30 mins.,-74%
same,"% Inhibition, Intraperitoneal, 60 min",whole complement,-74%
same,"% Inhibition, Intraperitoneal, 120 min",whole complement; 120 mins.,-74%
same,Intrinsic Therapeutic Index,[3],512 and 256
"O=C(O)c1cc(NS(=O)(=O)c2cc(S(=O)(=O)Nc3cc(C(=O)O)c(O)c(C(=O)O)c3)cc(S(=O)(=O)Nc3cc(C(=O)O)c(O)c(C(=O)O)c3)c2)cc(C(=O)O)c1O [5,5',5""-[s-Phenenyltris(sulfonylimino)]tri-2-hydroxy-isophthalic acid]",AC Wells,citrated sheep plasma,-1 Wells
same,Anti-coagulant Activity (Wells) AC,citrated sheep plasma,-1 Wells
same,C1 026 Wells,activated human C1,+6 Wells
same,Complement Inhibiting Activity (Wells) Code 026,activated human C1,+6 Wells
same,Intrinsic Therapeutic Index,[3],128
same,Logarithmic Difference Expressed As Wells,[3],+7 Wells
same,Shunt Inhibition 036 Wells,shunt pathway,+1 Wells
"O=C(O)c1cc(NS(=O)(=O)c2cc(S(=O)(=O)Nc3ccc(O)c(C(=O)O)c3)cc(S(=O)(=O)Nc3ccc(O)c(C(=O)O)c3)c2)ccc1O [5,5',5""-[s-Phenenyltris(sulfonylimino)]trisalicylic acid]",AC Wells,citrated sheep plasma,-2 Wells
"O=C(O)c1cc(NS(=O)(=O)c2cc(S(=O)(=O)Nc3cc(C(=O)O)cc(C(=O)O)c3)cc(S(=O)(=O)Nc3cc(C(=O)O)cc(C(=O)O)c3)c2)cc(C(=O)O)c1 [5,5',5""-[s-Phenenyltris(sulfonylimino)]tri-isophthalic acid] [listing 2 of 2 here]",inhibition at 200 mg/kg,"whole complement; 2 min, 2 mins., read-out: % Inhibition, Intravenous, 2 min",-88%
same,inhibition at 200 mg/kg,"whole complement; 0.5 h, 30 mins., read-out: % Inhibition, Intravenous, 30 min",-66%
same,inhibition at 200 mg/kg,"whole complement; 2 h, 120 mins., read-out: % Inhibition, Intravenous, 120 min",-53%
NC[C@H]1CC[C@H](C(=O)O)CC1 [tranexamic acid],success in treatment of hereditary angioneurotic edema,[1],used with success
"Nc1ccc2cc(S(=O)(=O)O)cc(O)c2c1N=Nc1ccc(NC(=O)Nc2ccc(N=Nc3c(N)ccc4cc(S(=O)(=O)O)cc(O)c34)c(S(=O)(=O)O)c2)cc1S(=O)(=O)O [chlorazol fast pink, 3,3'-ureylenebis-[6-(2-amino-8-hydroxy-6-sulfo-1-naphthylazo)]benzenesulfonic acid, tetrasodium salt]",anticomplementary effect / complement inhibition,complement system,anticomplementary effect
heparin,anticomplementary effect / complement inhibition,complement system,anticomplementary effect
NCCCCCC(=O)O [epsilon-aminocaproic acid],success in treatment of hereditary angioneurotic edema,[1],used with success

# Source: patent US4120896A, “S-Phenenyltris(sulfonylimino)tri-anionic substituted benzene dicarboxylic acids and substituted alkyl amino acids and their salts” (America Cyanamid Company, priority 1977, dated 1978)
